Data: ChEMBL document CHEMBL3352161, “Phorbaketals L-N, cytotoxic sesterterpenoids isolated from the marine sponge of the genus Phorbas” (Bioorg Med Chem Lett, 2014)

Tests used:
Assay type in all cases: functional, cell-based
A498 = assay: Cytotoxicity against human A498 cells after 72 hrs by MTT assay; details: A498, 72 h
[1] = Cytotoxicity against human PANC1 cells after 72 hrs by MTT assay; details: PANC-1, 72 h
ACHN = assay: Cytotoxicity against human ACHN cells after 72 hrs by MTT assay

SMILES | IC50 (A498) [µM] | IC50 [1] [µM] | IC50 (ACHN) [µM]
C=C(CCC1OC1(C)C)[C@H](Br)[C@@H]1CC(C)=C[C@]2(C=C(CO)[C@H]3CC(=O)C(C)=C[C@H]3O2)O1 (stereo not given in full) | 18.7 | 11.4 | 24.4
CCN(CC)CCNC(=O)c1c(C)[nH]c(/C=C2\C(=O)Nc3ccc(F)cc32)c1C [SUNITINIB MALATE] | – | – | 2
O=c1[nH]cc(F)c(=O)[nH]1 [FLUOROURACIL] | – | 50 | –
C=C(CCC=C(C)C)[C@H](O)[C@@H]1CC(C)=C[C@]2(C=C(CO)[C@H]3CC(=O)C(C)=C[C@H]3O2)O1 | 17.3 | 50 | > 50
C=C(C)[C@@H](CC/C(C)=C/[C@@H]1CC(C)=C[C@]2(C=C(CO)[C@H]3CC(=O)C(C)=C[C@H]3O2)O1)OO | > 50 | > 50 | > 50
CC(C)=CCC/C(C)=C/[C@@H]1CC(C)=C[C@]2(C=C(CO)[C@H]3CC(=O)C(C)=C[C@H]3O2)O1 | 4.4 | 13.5 | 3
CO[C@H]1C[C@@H]2CC[C@@H](C)[C@@](O)(O2)C(=O)C(=O)N2CCCC[C@H]2C(=O)O[C@H]([C@H](C)C[C@@H]2CC[C@@H](OC(=O)C(C)(CO)CO)[C@H](OC)C2)CC(=O)[C@H](C)/C=C(\C)[C@@H](O)[C@@H](OC)C(=O)[C@H](C)C[C@H](C)/C=C/C=C/C=C/1C [TEMSIROLIMUS] | 0.35 | – | –
